The values below come from patent publication US7314959B2, “Amino thiol compounds and compositions for use in conjunction with cancer therapy” (Wisconsin Alumni Research Foundation, priority 2003, dated 2008).

“Also recorded” adds a separate entry of the source.

Assay [1] has as its system Phase I/Phase II/Phase III drug metabolizing/exporting gene products in neonate rat skin. Nature of the assay: Nucleic acid arrays of topically treated neonate rat skin. It is filed as in vivo. The following applies: topical treatment of neonate rat skin for 3-6 days. From the text:
Two examples of genes whose expression was induced following topical β-naphthaflavone treatment included, glutathione S-transferase (several separate isoforms that conjugate/detoxify drug electrophiles), and MRP (mdr-related protein, drug exporting membrane pump).

Assay [2] concerns radiation-induced dermatitis on backs of rats. The experiment in a line: Radiation-induced dermatitis in rat skin model. It is filed as in vivo. The following applies: for protective effect against radiation-induced dermatitis (FIG. 8D): topical in carrier vehicle before 5.5 min Cs137 irradiation. On the procedure:
To determine efficacy of chemoprotective polyamines in preventing radiation-induced dermatitis, adult rats were topically treated with the compounds before and after radiation treatment. Rats were exposed to medically relevant levels of radiation that could induce clinical radiation dermatitis. Sprague Dawley rats (Harlan Spraque Dawley) at 4-6 weeks-old were anesthetized with sodium pentobarbital at 40 mg/kg body weight (Sigma, St. Louis, Mo.) prior to radiation exposure. A defined area (1.5×2 cm) on the backs of rats was irradiated using a Mark I, Model 30, Cs 137 irradiator (J. L. Sheppard & Associates). Before topical drug treatment or irradiation, the backs of the rats were clipped using an Oster clipper at the closest setting. The rest of the body was protected from radiation exposure using a lead shield (2.5 cm thick). A dose response study was initially performed to reproduce relevant dermatitis that matched the Grade (I-IV) scale used to score the severity of radiation-induced dermatitis in humans. The severity of the dermatitis was scored 12-13 days post-irradiation at the peak of the dermal inflammation. […] Radiation dermatitis of Grade II-III was considered most clinically relevant, so a radiation dose of 8.7 Gy was typically used in the rats. The clipped back region on the rats was treated topically with aminothiol in delivery vehicle four times in the two hours immediately preceding irradiation (at −2 hr, −1 hr, −30 min, and −10 min; irradiation was at 0 min
The polyamines or amino thiols were prepared in a delivery vehicle, consisting of ethanol:propylene glycol:water, ranging from 0:95:5 to 50:30:20 depending upon the solubility characteristics of the topical molecule, and the degree of dermal penetration desired. A vehicle composed of an emulsion formed by sonication of ‘nonionic liposomes’ and isopropyl myristate was also used (Jayaraman, S. et al., J. Pharm. Sci. 85:1082-1084, 1996). In a commonly used protocol, 220 μl of topical drug/vehicle was applied to an area ˜2 cm×3 cm on the back in the 2 hr just prior to irradiation. Rats treated with only the delivery vehicle served as controls. Twelve to thirteen days post-radiation, the rats were evaluated for dermatitis within the irradiated area. In early studies, a modified scoring scale described by Masuda K. et al., Int. J. Radiation Oncol. Biol. Phys: 12, 1645 (1986) was used, and in later studies, including those described here, a simplified scoring system was used in which the percentage of the irradiated, rectangular field covered with scrab material was estimated between 0 and 100% to provide scores on a scale between 0 and 100.
This example relates to the use of a rat skin model to evaluate the efficacy of two amino thiol compounds in preventing radiation-induced dermatitis. To test whether topically-applied aminothiols could prevent the radiodermatitis caused by external beam radiotherapy, the rodent model described in Example 3 was slightly modified. Briefly, the radiodermatitis model involved: • i) shaving the backs of 6-7 week old rats or mice; • ii) applying four topical doses of aminothiol in a delivery vehicle composed of ethanol:propylene glycol (PG):water in the 2 hr prior to irradiation; • iii) irradiating a small, 3 cm^2 (1.5×2 cm) area on the animal's back (through a window in a lead plate) with 8.7 Gy of γ radiation from a Cs^137 source; and • iv) scoring the severity of the dermatitis 12-13 days later, at the peak of the inflammatory skin reaction. Radiodermatitis severity was scored by estimating the percentage of the irradiated field that was covered by scrab material.
Methods: Treatments were applied as described in Example 6.

The subject of a further assay is 23SK human skin cells. Nature of the assay: Protection of human skin cells against phosphoramide mustard. It is filed as cell-based. As to conditions: 4 mM preload 30 min, phosphoramide mustard 40 min. As to the method: An in vitro cell culture assay was developed to determine the ability of chemoprotective polyamines, chemoprotective amino thiols and other molecules to confer radioprotection or chemoprotection to human skin cells. Diploid, human foreskin fibroblasts (23SK cells) were maintained in DMEM supplemented with 20% fetal bovine serum and gentamycin. For toxicity experiments, cells were seeded at a density of 750 cells/100 μl of DMEM+20% FBS+gentamycin into each well of 96 well plates (Corning, Corning, N.Y.). The next day, solutions of protective drug molecules, typically at 4 mM concentration, were prepared in Dulbecco's phosphate-buffered saline (D-PBS); each stock was titrated back to pH 7.0-7.5, if necessary, using sterile HCl or NaOH. Media was aspirated from cell wells, wells were rinsed with D-PBS, and loading solutions were then added to wells. Cells were typically exposed to loading solutions for 30 min. Following this drug loading period, plates were either placed directly into a Shepherd Mark II Cs^137 irradiator for irradiation (38 min), or wells were aspirated and the solution immediately replaced with a solution of D-PBS containing 350 μM phosphoramide mustard (obtained from NCI Chemical Repository) for a 40 min incubation at room temperature. After either treatment, wells were aspirated, rinsed and then given 100 μl of DMEM+20% FBS+gentamycin. Plates were maintained in 5% CO2 within a humidified chamber within a humidified incubator for 4-5 days at 37° C. […] of MTT solution (Promega Corp., Madison, Wis.) was then added to each well, and color development occurred over the next 3 hr at 37° C. Absorbance at 490 nm was then determined using a plate reader, and cell growth in treated wells compared to cell growth in wells loaded with vehicle and not irradiated or exposed to phosphoramide mustard was plotted using GraphPad software.

The subject of assay [3] is primary, human skin fibroblasts. The experiment in a line: Cell cycle block in human skin fibroblasts (flow cytometry). It is filed as cell-based. As to conditions: for cell cycle block (phase): log-phase human fibroblast cultures; for reversibility of cell cycle block: upon washout or removal of the drug. On the procedure:
(§1) Methods (Cell cycle and p21 western): The cell culture experiments were done using primary, human skin fibroblasts, one strain of which (BJ cells) was obtained from ATCC (American Type Culture Collection). […] For flow cytometry and p21 experiments, cells were plated at 0.5×10^6 cells/150 mm plate, and 24 hr later, drug molecules (4100 μM PrC-210, 600 μM cysteamine, 205 μM cysteamine analog, 0.4 μg/ml colcemid) were added to medium. […] (Cancer Research. 61(21):7754-62, 2001). As per the cited reference, cells were fixed, treated with RNAse, and stained with propidium iodide for flow cytometry, or cells were extracted, proteins electrophoresed, and probed with anti-p21 antibody (#SXM-30) for western blot analysis.

The subject of the next assay is cell cycle. As to conditions: Jeitner and Renton 1996; Snyder and Grdina 2000; Kramer et al. 1997; cited from earlier work.
In another assay the test system is mouse skin. The following applies: cited from earlier work.
The subject of another assay is p21 in human fibroblasts. Nature of the assay: p21 western blot in human skin fibroblasts. It is filed as cell-based. As to conditions: IC70 concentration of PrC-210 (4100 μM); cysteamine 600 μM; 30 hour exposure. On the procedure:
as §1
(In general: A western blot detects proteins with antibodies after separation by electrophoresis.)

A further assay deals with cells in tissue culture. As to conditions: Purdie 1979; cited from earlier work.

As for `O=c1cc(-c2ccccc2)oc2ccc3ccccc3c12` [β-naphthaflavone], the “number of Phase I/Phase II/Phase III drug metabolizing/exporting gene products activated” value in assay [1] is listed as “at least 40”.
In the case of `NCCCNCCSP(=O)(O)O` [amifostine], the “protective effect against radiation-induced dermatitis (FIG. 8D)” value in assay [2] is given as “lack of a protective effect”. In addition, the “protective effect on cell growth against phosphoramide mustard (FIG. 8B)” value (shortened to “protective effect on cell growth”) in the assay on 23SK human skin cells is given as “not significantly different than that seen in the vehicle control”. Besides, the “cell cycle block (phase)” value in assay [3] was “G2 cell cycle block that could not be reversed”. Moreover, the “cell cycle arrest reported in literature” value in the assay on cell cycle is on record as “arresting cells in the G2 phase”. For the same compound, the “effect of systemic drug on radiation-induced skin damage” value with mouse skin (systemic, mice, Lowy et al. 1972) is listed as “effective in reducing radiation-induced skin damage”. Besides, the “protective effect when applied topically to mouse skin” value in the assay with mouse skin (topical, Verhey et al. 1983) is listed as “no protective effect”. Moreover, the “effect of topical application on radiation-induced skin damage” value with mouse skin (topical, mice, Lowy et al. 1972) is “showed no protective effect”.
Regarding `NCCS` [cysteamine], the “effect on radiation dermatitis” value in assay [2] (600-1200 mM applied to backs of rats two hours prior to radiation) is “eliminate radiation dermatitis”. Also, the “protective effect on cell growth” value with 23SK human skin cells is given as “conferred a protective effect”. Moreover, in assay [3], the “cell cycle block (phase)” value is on record as “cell cycle block in G2; also recorded: G2 cell cycle block that could not be reversed” and the “reversibility of cell cycle block” value is “not reversible”. In addition, the p21 expression result with p21 in human fibroblasts was “does not induce such expression”. In addition, the “cell cycle arrest reported in literature” value in the assay on cell cycle was “arrest in G2/M”. Also, the “radioprotector activity when added to cells in tissue culture” value in the assay on cells in tissue culture is recorded as “active as a radioprotector”.
On to `NCCCNCCS` [WR-1065], for which, in assay [2], the “protective effect against radiation-induced dermatitis (FIG. 8D)” value is recorded as “lack of a protective effect”. For the same compound, the “protective effect on cell growth” value with 23SK human skin cells was “not significantly different than that seen in the vehicle control”. Besides, in assay [3], the “cell cycle block (phase)” value is “cell cycle block in G2; also recorded: G2 cell cycle block that could not be reversed” and the “reversibility of cell cycle block” value is recorded as “not reversible”. In addition, in the assay with cell cycle, the “cell cycle arrest reported in literature” value is recorded as “arresting cells in the G2 phase”. Besides, the “radioprotector activity when added to cells in tissue culture” value with cells in tissue culture is “active as a radioprotector”.
